{"source": "patent US8524701B2", "about": "“Use of a specific cyclic amine derivative or the pharmaceutically acceptable salts thereof for the treatment or prevention of heart failure” (Boehringer Ingelheim Pharma GmbH & Co. KG, priority 2002, dated 2013)", "key": {"[1]": {"tested_on": "heart rate", "format": "in vivo, cat", "details": "maximum effect, FIG. 1", "text": "This selection of the dose is based on the result shown in FIG. 1, wherein the reduction of heart rate is plotted against the applied dose of the drug (open circles: zatebradine; filled circles: cilobradine). […] Therefore, by choosing these doses, it can already be assumed that the pharmacological effect on heart rate of cilobradine is better than the pharmacological effect of zatebradine."}, "[2]": {"tested_on": "cat eyes", "assay": "Electroretinogram (ERG) response to sinusoidally modulated luminances recorded from cat eyes", "format": "in vivo", "procedure": "The content of these references, and more particularly the experimental parts described therein, are herein incorporated by reference.\nThese studies were based on a measurement of the electroretinogram (ERG) responses recorded from cat eyes, in normal conditions and after administration of zatebradine.\nIn the following experiment, the same experiment was performed using cilobradine, and the results compared to the results obtained with zatebradine."}, "[3]": {"tested_on": "heart rate", "format": "in vivo", "details": "rat", "procedure": "A further similar experiment was performed in order to compare the visual side-effect of cilobradine and zatebradine in conditions where the drugs are pharmacologically effective in reducing heart rate. The aim of this experiment was to compare the visual side-effect of both drugs in another experimental animal model, namely on the retinal system of the rat. Furthermore, the aim of this experiment was also to compare the visual side-effect of both drugs in acute and in chronic (over two weeks) drug treatment conditions.\nThe ERG measurements were made 30 minutes after injection of the drug. The measured heart rate frequency was:\nThe ERG measurement was made 30 minutes after injection of the drug. The measured heart rate frequency was:\n(§1) The ERG measurement was made after the 2 weeks treatment."}, "[4]": {"tested_on": "retinal system of the rat", "assay": "Electroretinogram (ERG) responses from anesthetized pigmented rats as a function of stimulus frequency", "format": "in vivo", "details": "for effect on the ERG (visual side-effect): 30 minutes after injection", "text": "The aim of this experiment was to compare the visual side-effect of both drugs in another experimental animal model, namely on the retinal system of the rat. Furthermore, the aim of this experiment was also to compare the visual side-effect of both drugs in acute and in chronic (over two weeks) drug treatment conditions.\nThe principle of this experiment is again the same as the principle of the experiment performed by Gargini et al. and published in Vision research, vol.\nThe results of the experiment are visualized by plotting the measurement of the first amplitude of the Fourier transform of the ERG as a function of the applied stimulus frequency (oscillating light stimulus of high luminance and contrast).\nThe ERG measurements were made 30 minutes after injection of the drug.\nThe ERG measurement was made 30 minutes after injection of the drug.\nas §1"}, "[5]": {"tested_on": "hyperpolarisation activated, cAMP-modulated cation current channels (HCN) in cardiac conductive tissue", "details": "cited from earlier work"}, "[6]": {"tested_on": "cat eyes", "details": "cited from earlier work"}, "[7]": {"tested_on": "patients with heart failure", "details": "Shinke et al. 1997; cited from earlier work"}}, "note": "Where two headings read alike, the source gives them in different places.", "data": [{"smiles": "COc1ccc(CCN(C)CCCN2CCc3cc(OC)c(OC)cc3CC2=O)cc1OC", "note": "[zatebradine]", "values": [{"measurement": "reduction of the heart rate", "setting": "[1]; dose of 2.5 mg/kg body weight", "result": "about 44%"}, {"measurement": "ERG response (visual side-effect)", "setting": "[2]; 15 minutes after 2.5 mg/kg body weight i.v. injection, FIG. 2", "result": "reduces the amplitude of the response to stimuli of frequency above 1 Hz and shift the corresponding phase lags"}, {"measurement": "ERG response (visual side-effect)", "setting": "[2]; 5 hours after injection of 2.5 mg/kg body weight, FIG. 2", "result": "visual response is back to normal"}, {"measurement": "measured heart rate frequency", "setting": "[3]; acute treatment, single dose 3 mg/kg, 30 minutes after injection, control 428, FIG. 5", "result": 333, "unit": "beats per min."}, {"measurement": "effect on the ERG (visual side-effect)", "setting": "[4]; acute treatment, single dose 3 mg/kg, FIG. 5", "result": "a reduction of the amplitude of the response to stimuli of frequency above 1 Hz and a shift of the corresponding phase lags is observed"}, {"measurement": "block of HCN channels responsible for the current If", "setting": "[5]", "result": "selectively block"}, {"measurement": "ERG response amplitude", "setting": "[6]; after administration of zatebradine, Archives Italiennes de Biologie 1999, Vision Research 1999", "result": "reduces the amplitude of the response to stimuli of frequency above 1 Hz"}, {"measurement": "cut-off introduced in the band-pass of the ERG response", "setting": "[6]; after intravenous injection or oral administration, decreased response amplitude in the range 2 to 15 Hertz", "result": "about 2 Hertz"}, {"measurement": "cardiac efficiency", "setting": "[7]", "result": "improved cardiac efficiency"}]}, {"smiles": "COc1ccc(CCN2CCC[C@H](CN3CCc4cc(OC)c(OC)cc4CC3=O)C2)cc1OC", "note": "[cilobradine, (+)-3-[(N-(2-(3,4-dimethoxy-phenyl)-ethyl)-piperidin-3-(S)-yl)-methyl]-7,8-dimethoxy-1,3,4,5-tetrahydro-2H-3-benzazepin-2-one]", "values": [{"measurement": "reduction of the heart rate", "setting": "[1]; dose of 0.75 mg/kg body weight", "result": "about 75%"}, {"measurement": "ERG response (visual side-effect)", "setting": "[2]; after injection of 0.75 mg/kg body weight, FIG. 3", "result": "no visual effect can be detected"}, {"measurement": "measured heart rate frequency", "setting": "[3]; acute treatment 0.3 mg/kg, 30 minutes after injection, control 400, FIG. 4", "result": 364, "unit": "beats per min."}, {"measurement": "measured heart rate frequency", "setting": "[3]; acute treatment 1 mg/kg, 30 minutes after injection, control 400, FIG. 4", "result": 316, "unit": "beats per min."}, {"measurement": "measured heart rate frequency", "setting": "[3]; acute treatment 3 mg/kg, 30 minutes after injection, control 400, FIG. 4", "result": 270, "unit": "beats per min."}, {"measurement": "measured heart rate frequency", "setting": "[3]; chronic treatment 2 weeks, FIG. 7, table row prints 1 mg/kg, text says double dose of 3 mg/kg per day, control 350", "result": 285, "unit": "beats per min."}, {"measurement": "measured heart rate frequency", "setting": "[3]; chronic treatment, single dose 1 mg/kg per day during 2 weeks, control 400, FIG. 6", "result": 260, "unit": "beats per min."}, {"measurement": "visual side-effects", "setting": "[4]; acute as well as chronic (2 weeks) treatment, FIGS. 4 and 6", "result": "without visual side-effects"}, {"measurement": "effect on the ERG (visual side-effect)", "setting": "[4]; acute treatment 0.3, 1 and 3 mg/kg, FIG. 4", "result": "no effect on the ERG can be detected"}, {"measurement": "block of HCN channels responsible for the current If", "setting": "[5]", "result": "selectively block"}]}]}
